The target in one experiment is T1, RORγt-LBD (Homo sapiens, UniProt P51449).
T1 sequence (P51449 269-508 limits assumed): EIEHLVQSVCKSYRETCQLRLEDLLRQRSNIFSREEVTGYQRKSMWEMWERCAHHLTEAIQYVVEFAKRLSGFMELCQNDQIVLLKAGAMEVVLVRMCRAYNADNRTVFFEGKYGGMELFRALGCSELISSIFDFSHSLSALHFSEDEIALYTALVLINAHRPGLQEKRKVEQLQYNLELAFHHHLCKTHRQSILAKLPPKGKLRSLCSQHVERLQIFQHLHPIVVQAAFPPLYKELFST
In words: Time-resolved fluorescence resonance energy-transfer assay (TR-FRET), co-activator peptide recruitment. It is filed as biochemical. On the set-up: TR-FRET Biochemical Amax: unit not given here. Conditions: for EC50: His-RORγt-LBD 30 nM, SRC peptide 500 nM, agonistic activity, averages of one or more measurements, read-out: TR-FRET Biochemical EC50/; for TR-FRET Biochemical Amax: upper activation limit, His-RORγt-LBD, SRC peptide. The procedure, abridged: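 This agonist-mode TR-FRET used 30 nM His-tagged RORγt-LBD, 500 nM biotinylated SRC peptide, 0.25 nM Eu-anti-His and 5 nM APC-streptavidin in pH 7.0 Tris/KCl buffer with DTT and Triton. A 7-concentration, 5-fold compound series was incubated at 4 °C overnight plus 1 h at room temperature, and the 665/615 nm signal was read.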
On the technique in general: Time-resolved FRET reads energy transfer from a long-lived donor to a nearby acceptor.

A further experiment concerns the target T2, RORγt (Homo sapiens, UniProt P51449).
T2 construct: The plasmid of pFN26A-RORγt-LBD and pG14.35 (Promega, Cat. No. E1370) were co-transfected into HEK 293 cells; expressed in transfected cells; host or cells: HEK 293 cells (Cat. No. GNHu18)
T2 sequence (P51449 269-508 limits assumed): T1 sequence (P51449 269-508 limits assumed)
In words: RORγt cellular reporter gene detection assay.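 For Cellular Reporter Assay Amax: Ursolic Acid added as 5 µL of 20 µM medium per well.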 The class given is cell-based. Conditions: 24 hrs; for EC50: HEK 293 cells co-transfected with pFN26A-RORγt-LBD and pG14.35, in presence of antagonist Ursolic acid, top concentration 50 μM; for Cellular Reporter Assay Amax: upper activation limit, HEK 293 cells, in presence of antagonist Ursolic acid. Summed up:
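Compounds, titrated 4-fold from a 50 μM top concentration, were added with Ursolic acid to HEK293 cells carrying a RORγt-LBD plasmid and a reporter plasmid. After 24 h at 37° C, dual firefly/Renilla luciferase readout; four-parameter curves gave EC50 and maximal activation (Amax).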

SMILES strings stand for the structures.

In the case of `NC(=O)C1(N2CCN3c4ccc(-c5cc(F)cc(OC(F)F)c5)cc4N(S(=O)(=O)c4cccc(C(F)(F)F)c4)C[C@@H]3C2)CCC1` [Example 80, (S)-1-(8-(3-(difluoromethoxy)-5-fluorophenyl)-6-((3-(trifluoro-methyl)phenyl)sulfonyl)-1,2,4,4a,5,6-hexahydro-3H-pyrazino[1,2-a]quinoxalin-3-yl)cyclobutane-1-carboxamide], on RORγt-LBD, the EC50 is 39.3 nM and the “TR-FRET Biochemical Amax” value is 1.04. Moreover, at RORγt, the EC50 was 209 nM and the “Cellular Reporter Assay Amax” value was found to be 3.4.
For `NC(=O)N1CCN2c3ccc(-c4cc(F)cc(OC(F)F)c4)cc3N(S(=O)(=O)c3cccc(C(F)(F)F)c3)C[C@@H]2C1` [Example 61, (S)-8-(3-(difluoromethoxy)-5-fluorophenyl)-6-((3-(trifluoro-methyl)phenyl)sulfonyl)-1,2,4,4a,5,6-hexahydro-3H-pyra-zino[1,2-a]quinoxaline-3-car-boxamide], in that order: 86 nM, 0.69, 469 nM and 3.0.
For `N#CCC(=O)N1CCN2c3ccc(-c4cc(F)cc(OC(F)F)c4)cc3N(S(=O)(=O)c3cccc(C(F)(F)F)c3)C[C@@H]2C1` [Example 28, (S)-3-(8-(3-(difluoromethoxy)-5-fluorophenyl)-6-((3-(trifluoromethyl)phenyl)sulfonyl)-1,2,4,4a,5,6-hexahydro-3H-pyrazino[1,2-a]quinoxalin-3-yl)-3-oxopropanenitrile] the same measures were 14.7 nM, 0.86, 354 nM and 2.6.
Consider `CC(=O)N1CCN2c3ccc(/C=C(\C)c4c(F)cccc4Cl)cc3N(S(=O)(=O)c3cccc(C(F)(F)F)c3)C[C@@H]2C1` [Example 15, (S,E)-1-(8-(2-(2-chloro-6-fluorophenyl)prop-1-en-1-yl)-6-((3-(trifluoromethyl)phenyl)sulfonyl)-1,2,4,4a,5,6-hexahydro-3H-pyrazino [1,2-a]quinoxalin-3-yl)ethan-1-one], for which, at RORγt-LBD, the EC50 is 25 nM and the “TR-FRET Biochemical Amax” value turned out to be 0.83. Further, on RORγt, the EC50 was 134 nM and the “Cellular Reporter Assay Amax” value is listed as 3.2.
Regarding `C/C(=C\c1ccc2c(c1)N(S(=O)(=O)c1cccc(C(F)(F)F)c1)C[C@@H]1CN(C(C)C(=O)O)CCN21)c1c(F)cccc1Cl` (stereo partly drawn) [Example 25, 2-((S)-8-((E)-2-(2-chloro-6-fluorophenyl)prop-1-en-1-yl)-6-((3-(trifluoromethyl)phenyl)sulfonyl)-1,2,4,4a,5,6-hexahydro-3H-pyrazino[1,2-a]quinoxalin-3-yl) propanoic acid], on RORγt-LBD, the EC50 came out at 6.35 nM and the “TR-FRET Biochemical Amax” value is on record as 0.84. Moreover, on RORγt, the EC50 is 441 nM and the “Cellular Reporter Assay Amax” value is 4.4.
For `C/C(=C\c1ccc2c(c1)N(S(=O)(=O)c1cccc(C(F)(F)F)c1)C[C@@H]1CN(C(N)=O)CCN21)c1c(F)cccc1Cl` [Example 62, (S,E)-8-(2-(2-chloro-6-fluoro-phenyl)prop-1-en-1-yl)-6-((3-(trifluoromethyl)phenyl)sulfo-nyl)-1,2,4,4a,5,6-hexahydro-3H-pyrazino[1,2-a]quinoxa-line-3-carboxamide] the same measures were 25.2 nM, 0.69, 297 nM and 3.8.
For `O=C(O)CN1CCN2c3ccc(/C=C/c4c(Cl)cccc4C(F)(F)F)cc3N(S(=O)(=O)c3cccc(OC(F)(F)F)c3)C[C@@H]2C1` [Example 86, (S,E)-2-(8-(2-chloro-6-(trifluoromethyl)styryl)-6-((3-(trifluoromethoxy)phenyl)sulfonyl)-1,2,4,4a,5,6-hexahydro-3H-pyrazino[1,2-a]quinoxalin-3-yl)acetic acid] the same measures were 78.4 nM, 0.69, 2340 nM and 12.6.
For `CN1CCN(S(=O)(=O)c2cccc(C(F)(F)F)c2)c2cc(-c3cc(F)cc(OC(F)F)c3)ccc21` [Example 1, 6-(3-(difluoromethoxy)-5-fluorophenyl)-1-methyl-4-((3-(trifluoromethyl)phenyl)sulfonyl)-1,2,3,4-tetrahydroquinoxaline], in that order: 18.4 nM, 1.61, 518 nM and 3.3.
On to `CC(C)(C(=O)O)N1CCN2c3ccc(-c4cc(F)cc(OC(F)F)c4)cc3N(S(=O)(=O)c3cccc(C(F)(F)F)c3)C[C@@H]2C1` [Example 54, (S)-2-(8-(3-(difluoromethoxy)-5-fluorophenyl)-6-((3-(trifluoromethyl)phenyl)sulfonyl)-1,2,4,4a,5,6-hexahydro-3H-pyrazino[1,2-a]quinoxalin-3-yl)-2-methylpropanoic acid], for which, at RORγt-LBD, the EC50 was determined as 20.1 nM and the “TR-FRET Biochemical Amax” value worked out at 0.72. At RORγt, the EC50 stood at 297 nM and the “Cellular Reporter Assay Amax” value was 3.9.
For `O=C(O)CCO[C@@H]1CCN2c3ccc(-c4cc(F)cc(OC(F)F)c4)cc3N(S(=O)(=O)c3cccc(C(F)(F)F)c3)C[C@@H]2C1` [Example 115, 3-(((6aS,8R)-3-(3-(difluorometh-oxy)-5-fluorophenyl)-5-((3-(tri-fluoromethyl)phenyl)sulfonyl)-6,6a,7,8,9,10-hexahydro-5H-pyrido[1,2-a]quinoxalin-8-yl)oxy)propanoic acid], in that order: 67.9 nM, 0.71, 178 nM and 5.4.
For `O=S(=O)(c1cccc(C(F)(F)F)c1)N1C[C@@H]2COCCN2c2ccc(-c3cc(F)cc(OC(F)F)c3)cc21` [Example 98, (R)-8-(3-(difluoromethoxy)-5-fluorophenyl)-6-((3-(trifluoromethyl)phenyl)sulfonyl)-1,2,4,4a,5,6-hexahydro-[1,4]oxazino[4,3-a]quinoxaline], in that order: 20.6 nM, 0.75, 1540 nM and 5.4.
For `C/C(=C\c1ccc2c(c1)N(S(=O)(=O)c1cccc(C(F)(F)F)c1)C[C@@H]1CN(C(C)(CO)CO)CCN21)c1c(F)cccc1Cl` [Example 71, (S,E)-2-(8-(2-(2-chloro-6-fluorophenyl)prop-1-en-1-yl)-6-((3-(trifluoromethyl)phenyl)sulfonyl)-1,2,4,4a,5,6-hexahydro-3H-pyrazino[1,2-a]quinoxalin-3-yl)-2-methylpropane-1,3-diol], in that order: 40.5 nM, 0.97, 498 nM and 3.5.
`N#CC(CO)(CO)N1CCN2c3ccc(-c4cc(F)cc(OC(F)F)c4)cc3N(S(=O)(=O)c3cccc(C(F)(F)F)c3)C[C@@H]2C1` [Example 74, (S)-2-(8-(3-(difluoromethoxy)-5-fluorophenyl)-6-((3-(trifluoromethyl)phenyl)sulfonyl)-1,2,4,4a,5,6-hexahydro-3H-pyrazino[1,2-a]quinoxalin-3-yl)-3-hydroxy-2-(hydroxymethyl)propanenitrile]: on RORγt-LBD, the EC50 was determined as 45.1 nM and the “TR-FRET Biochemical Amax” value is reported as 1.20. In addition, at RORγt, the EC50 stood at 1040 nM and the “Cellular Reporter Assay Amax” value was 6.2.

Values taken from patent US20220009894A1, “1,2,3,4-TETRAHYDROQUINOXALINE DERIVATIVE, PREPARATION METHOD THEREFOR AND APPLICATION THEREOF” (Abbisko Therapeutics Co., Ltd., priority 2019, published 2022).
